According to patent publication US9233127B2, “Compositions and methods for CXCR4 signaling and umbilical cord blood stem cell engraftment” (University of Virginia Patent Foundation, priority 2012, dated 2016):

How the values were obtained:
CD34+ cells = experiment: Transwell chemotaxis of CD34+ cells to an SDF-1 gradient (priming); format: cell-based, human
Method: FIG. 11A-B—Effect of SLP and its components on chemotaxis of CD34^+ cells. Panel A: Chemotaxis of BM CD34^+ cells towards medium alone (control), SDF-1 low (10 ng/mL) alone, SLP (combined SLP from three patients), SDF-1 low+SLP, and SDF-1 high (300 ng/mL). Data are pooled from quadruplicate samples from three independent experiments. *p<0.00001. Panel B: Chemotaxis of UCB CD34^+ cells to medium alone (control), SDF-1 low (10 ng/mL) alone and SDF-1 low (10 ng/mL)+uPAR (1 μg/mL) or +ICAM (1 μg/mL) or +VCAM (1 μg/mL) or +FN (2 μg/mL), or +FG (4 μg/mL) or +C3a (1 μg/mL). Data are pooled from quadruplicate samples from three independent experiments. * p<0.00001.
Chemotaxis of CD34^+ cells to medium alone (control), C3a (1 μg/ml), C3adesArg (1 μg/ml), SDF-1 low (10 ng/mL) alone, and SDF-1 low (10 ng/mL)+C3a low (0.1 μg/ml) or SDF-1 low (10 ng/mL)+C3a (1 μg/ml) or SDF-1 low (10 ng/mL)+C3adesArg (1 μg/ml). Data are pooled from quadruplicate samples from three independent experiments.* p<0.00001.
FIG. 13A-B—Chemotaxis of cells to an SDF-1 gradient is lipid raft-dependent. Panel A: Chemotaxis of CD34^+ cells to medium alone (control), SDF-1 (300 ng/mL) and SDF-1 (300 ng/mL) after preincubation for 1 hr with Amphotericin (10 μg/mL) or Nystatin (50 μg/mL). Cells were collected after chemotaxis from the lower chambers and plated in a clonogenic assay. The number of CFU-GM and BFU-E colonies formed by harvested cells is shown as a percentage of control values. Data are pooled from quadruplicate samples from three independent experiments. *p<0.0001. Panel B: Chemotaxis of CD34^+ cells towards medium alone (control), SDF-1 low (10 ng/mL) alone, or SDF-1 low with cells exposed to C3a (1 μg/mL). Cells pretreated before chemotaxis for 1 hr with MβCD (2.5 mM) are shown as gray bars. Data are pooled from quadruplicate samples from three independent experiments. * p<0.00001.
HSPCs from the mPB engraft faster compared to HSPCs aspirated from BM. To test the hypothesis that mPB-derived HSPCs are primed in their responses to SDF-1 by molecules present in SLP, we pooled together SLP from three patients and exposed BM or UCB CD34^+ cells to the SLP during chemotaxis to a low (10 ng/mL) dose of SDF-1.
To address this issue further, the formation of rafts in the cells was perturbed by MβCD, which depletes cholesterol from the cell membrane. The CD34^+ cells were pre-incubated with MβCD for 1 hr. Chemotaxis to a low dose of SDF-1 in the presence of C3a (in the upper chambers) was evaluated.

[1] = test system: UCB progenitors (human CD45 cells); experiment: Long-term human engraftment of C3a primed UCB in NOD/SCID mice; format: in vivo
Method: FIG. 5A-B—Long-Term Engraftment of C3a Primed Progenitors (comprising upper and lower panels).
FIG. 54A-B—NOD.SCID engraftment comparing C3a Primed UCB vs. Control. […] 54A—control; 54B—C3a
These laboratory experiments were performed to evaluate responsiveness of UCB to SDF-1 gradient correlated with an outcome of injections in NOD/SCID mice to evaluate engraftment in vivo. In vivo studies incorporated humanized NOD.SCID/IL2rγ^null (NOG) mice were conducted to assess proportions and kinetics of human HSC homing, engraftment, comparing C3a primed UCB CD34^+ HSC vs. controls. NOD.SCID/IL2rγ^null is used in our studies as these mice lack the cytoplasmic region of the IL-2Rγ and reproducibly develop human T, myeloid, NK, and B-lymphoid cells when transplanted with cord blood CD34^+ cells. This model therefore provides a platform to analyze in vivo competitive repopulation of the full lymphopoietic system. […] More mature progenitors are considered to have exhausted after 8 weeks in this NOD.SCID model and human cells present are presumed to be derived from transplanted primitive progenitor cells. HLA staining was used to determine UCB chimerism and relative contribution of C3a primed UCB CD34^+ HSC to marrow engraftment.

With “C3a: 77 amino acid residue protein derived from the human complement C3a precursor; SEQ ID NO:1” the “chemotaxis of human CD34+ cells to low-threshold doses of SDF-1” value (CD34+ cells; SDF-1 low 10 ng/mL, C3a or C3adesArg 1 μg/ml) was “potentiate (prime) chemotaxis”, the “chemoattraction of CD34+ cells by the C3 cleavage fragment on its own” value (CD34+ cells; no SDF-1, 1 μg/ml) was “neither C3 cleavage fragments chemoattract” and the “human CD45 cells detected by FACS in marrow” value ([1]; NOD.SCID at 8 weeks after injection, vs control) was “significantly higher”. The “long-term human engraftment, flow cytometry for human anti-CD45” value ([1]; NOD/SCID mice harvest after 12 weeks, vs unprimed cells) was “exhibit long-term human engraftment”.
